Experimental data as given in patent publication US20120135866A1, “INCREASING PLANT VIGOR” (DOW AGROSCIENCES LLC, priority 2007, published 2012).
Entries after “also recorded” stand apart in the source; their conditions may differ.

Tests used:
Assay type in all cases: in vivo
[1] = tested on: cotton aphid (CA) Aphis gossypii; assay: Test 1: cotton aphid counts on plants grown from soaked seeds
Protocol: (§1) Seeds were soaked beginning on T=0 days in solutions of either
(§2) Compound A, imidacloprid, or plain water containing 0.125% (v:v) Tween 20 (check treatment). Compounds were formulated as technical material in water containing 0.125% Tween 20. […] Solution concentrations were 50, 5, 0.5, 0.05 and 0.005 ppm. No evaporation was possible and a significant excess of solution was present to ensure abundant availability of either Compound A or imidacloprid from each solution. On average 20 ml of solution was used to soak groups of seed needed for the seed soaking phase of this test. Seeds were removed from these solutions on T=2 days and planted. Seeds exposed to each unique treatment were germinated as a groups in dedicated shallow plastic cups filled with white sand and containing plain water. Planting of these seeds occurred on T=2 days and the seeds were grown in these shallow cups until T=10 days. Initially 70 ml of water was added to each shallow cup at planting and additional water was added to the cups as needed to keep the sand moist. On T=10 days germinating seedlings were transplanted from the shallow germination cups to individual containers (plastic cups−6 reps per treatment) filled with white sand. Thirty ml of water was used to water the plants following transplanting. After the initial treatment water was added to cups as needed to maintain moisture for plant development. On T=14 days each plant was infested with cotton aphid (CA) Aphis gossypii by transferring a small piece of infested foliage to each test plant. The number of aphids transferred to each plant was uniform based on visual estimation. Plants were rated on T=17 days and T=18 days by counting the number of CA and taking the weight of the each plant. The plant part weighed was the aerial portion of the plant cut off at the surface of the sand. Data were analyzed using analysis of variance with an LSD means separation test (Minitab).
Raw data were not homogeneous and so replicate aphid counts were transformed using a square root count+0.5 transformation.

[2] = tested on: plant grown from soaked seeds; assay: Test 1: plant weight (aerial portion) after seed soak
Protocol: as §1, §2
Treatment number 4 experienced some negative effects associated with excess watering during the phase when these plants were being germinated. […] Only four replicate plants were able to be planted to individual growing cups. […] Prior to conducting an analysis of individual treatment effects (factorial analysis of variance, LSD means separation test P=0.05, Minitab) on weight Treatment 4 (Compound A 0.05 ppm) was removed from the analysis because it was judged to be an outlier based on poor growth as described above. The paired imidacloprid rate (0.05 ppm, No. 9) was also removed to keep the data balanced.

[3] = tested on: Corn (Zea mays 'M2T783') seeds; assay: Test 2: fresh plant weight of corn after seed soak
Protocol: Technical samples of Compound A and imidacloprid were dissolved in water containing 0.125% Tween 20 (V:V). […] The treatment concentrations for Compound A and imidacloprid were 50, 12.5, 3.125, 0.78 and 0.19 ppm. Solutions were prepared in excess and 40 ml was added to 50 ml centrifuge tubes. Corn (Zea mays ‘M2T783’) seeds were inspected for uniform size and undamaged condition and were placed into each centrifuge tube containing specific compound by rate solutions. A treatment of only 0.125% aqueous Tween 20 was used to soak corn seeds and served as the untreated check. Tubes containing seeds and compound solutions were held at room temperature and after […] the seeds were removed from each solution, rinsed and planted into sand in 7.5 cm^2 pots. Tissue paper was placed into the bottom of each pot to keep sand from leaching from the pot. A total of 8 reps of each compound by rate combination were planted for both corn. Eight replicate pots of compound by rate combination were arranged in a completely randomized design on greenhouse carts. This arrangement of treated seeds in pots was placed into the greenhouse and watered over the top as needed. Each cart was equipped with a plastic rack that served to raise the pots up off the cart surface and away from any standing water. The carts were placed in the center of the greenhouse and were rotated 180 degrees daily. After 13 days the carts were moved to the laboratory and the plants were cut off at the soil surface and weighed. Fresh plant weight data were analyzed for homogeneity of variance using Levene's test and further evaluated using one way analysis of variance of individual treatment combinations (compound by rate) and pooled by compound across rates. Means were separated using Tukey's mean separation test with a family-wise error rate of 0.05. All analyses were conducted using Minitab
Corn data were homogeneous based on Levene's test for homgeneity of variance (p=0.116 and p=0.69 respectively). AOV of corn data did indicate a difference (F=3.22, P=0.045, df=2) for pooled compound effects but not for individual treatment effects.

O=[N+]([O-])NC1=NCCN1Cc1ccc(Cl)nc1 [Imidacloprid, imidacloprid]
Effect on number of aphids vs check ([1]; Test 1, seed soak, compound main effect): significantly more aphids in the check treatment; also recorded: reduced the number of aphids on plants | Aphids (#/plant) Rep 1 ([1]; seed soak 0.005 ppm): 45 #/plant | Aphids (#/plant) Rep 2 ([1]; seed soak 0.005 ppm): 125 #/plant | Aphids (#/plant) Rep 3 ([1]; seed soak 0.005 ppm): 55 #/plant | Aphids (#/plant) Rep 4 ([1]; seed soak 0.005 ppm): 75 #/plant | Aphids (#/plant) Rep 5 ([1]; seed soak 0.005 ppm): 80 #/plant | Aphids (#/plant) Rep 6 ([1]; seed soak 0.005 ppm): 35 #/plant | Aphids (#/plant) Rep 1 ([1]; seed soak 0.05 ppm): 95 #/plant | Aphids (#/plant) Rep 2 ([1]; seed soak 0.05 ppm): 60 #/plant | Aphids (#/plant) Rep 3 ([1]; seed soak 0.05 ppm): 65 #/plant | Aphids (#/plant) Rep 4 ([1]; seed soak 0.05 ppm): 95 #/plant | Aphids (#/plant) Rep 5 ([1]; seed soak 0.05 ppm): 75 #/plant | Aphids (#/plant) Rep 6 ([1]; seed soak 0.05 ppm): 50 #/plant | Aphids (#/plant) Rep 1 ([1]; seed soak 0.5 ppm): 25 #/plant | Aphids (#/plant) Rep 2 ([1]; seed soak 0.5 ppm): 44 #/plant | Aphids (#/plant) Rep 3 ([1]; seed soak 0.5 ppm): 43 #/plant | Aphids (#/plant) Rep 4 ([1]; seed soak 0.5 ppm): 70 #/plant | Aphids (#/plant) Rep 5 ([1]; seed soak 0.5 ppm): 80 #/plant | Aphids (#/plant) Rep 6 ([1]; seed soak 0.5 ppm): 30 #/plant | Aphids (#/plant) Rep 1 ([1]; seed soak 5 ppm): 33 #/plant | Aphids (#/plant) Rep 2 ([1]; seed soak 5 ppm): 37 #/plant | Aphids (#/plant) Rep 3 ([1]; seed soak 5 ppm): 17 #/plant | Aphids (#/plant) Rep 4 ([1]; seed soak 5 ppm): 18 #/plant | Aphids (#/plant) Rep 5 ([1]; seed soak 5 ppm): 30 #/plant | Aphids (#/plant) Rep 6 ([1]; seed soak 5 ppm): 34 #/plant | Aphids (#/plant) Rep 1 ([1]; seed soak 50 ppm): 0 #/plant | Aphids (#/plant) Rep 2 ([1]; seed soak 50 ppm): 0 #/plant | Aphids (#/plant) Rep 3 ([1]; seed soak 50 ppm): 4 #/plant | Aphids (#/plant) Rep 4 ([1]; seed soak 50 ppm): 7 #/plant | Aphids (#/plant) Rep 5 ([1]; seed soak 50 ppm): 4 #/plant | Aphids (#/plant) Rep 6 ([1]; seed soak 50 ppm): 1 #/plant | Effect on plant weight vs check ([2]; Test 1, seed soak): increased plant weights compared to the check plants | Plant Weight (g) Rep 1 ([2]; seed soak 0.005 ppm): 2.07 g | Plant Weight (g) Rep 2 ([2]; seed soak 0.005 ppm): 1.59 g | Plant Weight (g) Rep 3 ([2]; seed soak 0.005 ppm): 2.01 g | Plant Weight (g) Rep 4 ([2]; seed soak 0.005 ppm): 1.67 g | Plant Weight (g) Rep 5 ([2]; seed soak 0.005 ppm): 1.86 g | Plant Weight (g) Rep 6 ([2]; seed soak 0.005 ppm): 1.68 g | Plant Weight (g) Rep 1 ([2]; seed soak 0.05 ppm): 1.38 g | Plant Weight (g) Rep 2 ([2]; seed soak 0.05 ppm): 1.37 g | Plant Weight (g) Rep 3 ([2]; seed soak 0.05 ppm): 1.65 g | Plant Weight (g) Rep 4 ([2]; seed soak 0.05 ppm): 1.57 g | Plant Weight (g) Rep 5 ([2]; seed soak 0.05 ppm): 1.72 g | Plant Weight (g) Rep 6 ([2]; seed soak 0.05 ppm): 1.62 g | Plant Weight (g) Rep 1 ([2]; seed soak 0.5 ppm): 1.61 g | Plant Weight (g) Rep 2 ([2]; seed soak 0.5 ppm): 1.82 g | Plant Weight (g) Rep 3 ([2]; seed soak 0.5 ppm): 1.73 g | Plant Weight (g) Rep 4 ([2]; seed soak 0.5 ppm): 2.05 g | Plant Weight (g) Rep 5 ([2]; seed soak 0.5 ppm): 1.66 g | Plant Weight (g) Rep 6 ([2]; seed soak 0.5 ppm): 1.95 g | Plant Weight (g) Rep 1 ([2]; seed soak 5 ppm): 1.64 g | Plant Weight (g) Rep 2 ([2]; seed soak 5 ppm): 1.44 g | Plant Weight (g) Rep 3 ([2]; seed soak 5 ppm): 1.91 g | Plant Weight (g) Rep 4 ([2]; seed soak 5 ppm): 1.44 g | Plant Weight (g) Rep 5 ([2]; seed soak 5 ppm): 1.75 g | Plant Weight (g) Rep 6 ([2]; seed soak 5 ppm): 2.05 g | Plant Weight (g) Rep 1 ([2]; seed soak 50 ppm): 1.47 g | Plant Weight (g) Rep 2 ([2]; seed soak 50 ppm): 2.05 g | Plant Weight (g) Rep 3 ([2]; seed soak 50 ppm): 1.73 g | Plant Weight (g) Rep 4 ([2]; seed soak 50 ppm): 1.84 g | Plant Weight (g) Rep 5 ([2]; seed soak 50 ppm): 2.02 g | Plant Weight (g) Rep 6 ([2]; seed soak 50 ppm): 1.86 g | Plant Weight % increase ([3]; corn seedling weight vs untreated Tween 20 water check, pooled across rates): 24.8% | Plant Weight (g) Mean ([3]; corn, seed soak, pooled across rates 50-0.19 ppm, fresh weight after 13 days): 2.841 g | Tukey's pair-wise comparison of corn plant weight with untreated Tween 20 water check ([3]; pooled compound effects, family-wise error rate 0.05): not significantly different
